In EP4818330A1, “PHARMACEUTICAL PREPARATION FOR DIAGNOSING AND TREATING ALZHEIMER'S DISEASE” (Shanghai East Hospital Tongji University, priority 2023, dated 2025):
Where “and” joins values, the source holds several entries; their conditions need not be identical. Equal values may be shown once.

Key:
Format in all cases: cell-based, mouse
primary neurons [1] = experiment: CCK8 cell viability (toxicity) assay in primary neurons; details: 24 h, CCK8, three replicate wells
Excerpt: (§1) The CCK8 cell viability assay (CCK8) was adopted. Its principle is mainly based on the reduction reaction of WST-8 (chemical name: 2-(2-methoxy-4-nitrophenyl)-3-(4-nitrophenyl)-5-(2,4-disulfophenyl)-2H-tetrazolium monosodium salt). In the presence of living cells, WST-8 can be reduced by dehydrogenases in mitochondria to generate a highly water-soluble orange-yellow formazan product. The color intensity is directly proportional to the number of living cells, wherein the quantity of living cells can be indirectly reflected by measuring the absorbance of formazan products (typically at a wavelength of 450 nm). The CCK-8 assay is widely used in cell proliferation assay, cytotoxicity assay and tumor drug sensitivity test.
(§2) Primary hippocampal neuron culture: After ICR fetal mice at 18-21 days of gestation (E18-E21) were anesthetized, the fetal mice were dissected in a clean area and immersed in 75% ethanol for 1-2 min. The mouse head was taken out, the surface skull was removed with micro-scissors, and the brain tissue was transferred to an anatomical dissociation solution. Under a microscope, blood vessels and meninges were removed, hippocampal tissue was isolated, the extracted hippocampal tissue was placed in a 3.5 cm dish containing the anatomical dissociation solution, and the hippocampal tissue was cut into small fragments using micro-scissors. The minced hippocampal tissue was transferred to a 7 ml EP tube using a pipette gun. The hippocampal tissue hereinabove was centrifuged at 1000 rpm for 3-5 min, and the anatomical separation solution was discarded. 0.5-1 ml of papain digestion solution was added to the EP tube hereinabove, and the EP tube was placed in a 37°C incubator for 30 min. 300 µL of Trituration buffer 300 (DNase) and 5 mL of complete medium were added, and the hippocampal tissue was gently pipetted more than 10 times. The cell suspension was allowed to stand for 3 min, and 3-4 ml of supernatant was gently aspirated into a 15 ml tube using a pipette. 3-4 ml of complete medium was added again, and the hippocampal tissue was gently pipetted more than 10 times. Step 8 was repeated, and 3-4 ml of supernatant was transferred to the same 15 ml tube again. The previous step was repeated again. The collected supernatant was centrifuged at 1000 rpm, the supernatant was discarded, and 5 ml of complete medium was added. The mixture was gently pipetted and suspended, and then centrifuged again at 1000 rpm for 5 min. The complete medium was added to resuspend the cells, and then a portion of the cells was aspirated for counting. Generally, when neuronal cells were planted in a 24-well plate, the concentration of the cell suspension was generally 2×10^5/ml, and 500 µl of cells is inoculated per well. The resuspended neuron cells with a diluted ratio were seeded onto a glass slide treated with PDL, then the glass slide was placed in a 37°C incubator for 10 min, an appropriate amount of complete medium was added, and then the culture is continued in the incubator.

[2] = as above; details: ICR, mouse, primary hippocampal neurons, 24 h, CCK8, three replicate wells
Excerpt: as §1, §2

primary neurons [3] = experiment: Dendritic spine density of neurons in the in vitro AD model (APPsw lentivirus)
Description: The extraction and culture of primary neurons were the same as those hereinabove (toxicity experiment section). Transfection of neurons using plasmid calcium: A neuron culture medium (half medium change) was aspirated and placed in a 37°C water bath for later use, and Neurobasel A was added to a 24-well plate. 500 ng of plasmid DNA was dissolved in 12.5 µl of CaCl2 solution, and then centrifuged. 12.5 µl of HBS was added to the EP tube, and then centrifuged. The mixed solution hereinabove was added to the 24-well plate. The 24-well plate was gently shaken, and then placed back into a 37°C incubator to stand for 90 min. […] On day 6 of in vitro culture (DIV6), the original medium was semi-quantitatively collected, and the lentivirus stock solution (100 µl) was diluted with the original medium (10 ml) at a ratio of […]. […] Primary neurons were transfected with calcium-transformed GFP plasmids on day 4 of in vitro culture to enable the neurons to carry green fluorescence for observing neuronal dendrites. […] After 14 days of in vitro culture, the neurons were fixed with 4% PFA, photographed under a 100× oil immersion lens of a confocal fluorescence microscope, and the dendritic spine density per 10 µm length of the neurons was calculated by observing GFP green fluorescence.

CCOC(=O)c1[nH]c(C)c(CCC(=O)N2CCCC(C(=O)NCCN3CCCCCC3)C2)c1C (stereo not drawn) [compound of Formula I, ETHYL4-[3-(3-{[2-(AZEPAN-1-YL)ETHYL]CARBAMOYL}PIPERIDIN-1-YL)-3-OXOPROPYL]-3, 5-DIMETHYL-1H-PYRROLE-2-CARBOXYLATE]
cell viability (primary neurons [1]; 1.25 µmol): 88.68% and 77.1%
cell viability (primary neurons [1]; 5 µmol): 77.35% and 75.31%
cell viability (primary neurons [1]; 10 µmol): 58.82% and 65.03%
cell viability (primary neurons [1]; 20 µmol): 40.38% and 35.57%
cell viability (primary neurons [1]; 40 µmol): 23.14% and 48.19% and 36.68%
cell viability (primary neurons [1]; 160 µmol): 3.329% and 5.244%
viability at 24 h, 1.25 µmol ([2]; 1.25 µmol): 94.5%
viability at 24 h, 5 µmol ([2]; 5 µmol): 70.7%
viability at 24 h, 10 µmol ([2]; 10 µmol): 51.8%
viability at 24 h, 20 µmol ([2]; 20 µmol): 37.1%
viability at 24 h, 80 µmol ([2]; 80 µmol): 4.02%
viability at 24 h, 160 µmol ([2]; 160 µmol): 4.65%
viability at 24 h, 2.5 µmol [2]: 90.6%
number of dendritic spines of neurons (normalized to the control group) (primary neurons [3]; APP SW+intervention, compound 2.5 µmol for 24 h, individual neurons): 0.7841 and 0.7357 and 0.6856 and 0.8651 and 0.6806 and 0.6909 and 0.6481 and 0.7086
dendritic spine density (primary neurons [3]; in vitro AD model (APPsw virus), after compound intervention, group comparison): increased
